Test results as given in patent US7632829B2, “Diazepan derivatives” (Hoffmann-La Roche Inc., priority 2006, dated 2009).

Molecular target: T1, human chemokine receptor 2 isoform B (Homo sapiens, UniProt P41597)
T1 construct: host or cells: CHOK1-CCR2B-A5 (CHO-K1)
T1 sequence (P41597 1-360 isoform P41597-2): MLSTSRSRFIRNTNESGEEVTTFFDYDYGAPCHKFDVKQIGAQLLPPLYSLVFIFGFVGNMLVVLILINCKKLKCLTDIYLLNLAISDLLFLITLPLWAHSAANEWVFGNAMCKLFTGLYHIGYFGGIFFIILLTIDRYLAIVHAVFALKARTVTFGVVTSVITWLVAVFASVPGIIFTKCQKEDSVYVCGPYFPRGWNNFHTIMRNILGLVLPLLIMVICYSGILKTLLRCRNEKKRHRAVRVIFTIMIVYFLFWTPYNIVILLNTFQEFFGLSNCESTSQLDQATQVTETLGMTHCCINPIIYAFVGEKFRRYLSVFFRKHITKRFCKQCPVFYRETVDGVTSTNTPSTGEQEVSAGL
Test: Calcium mobilization assay (FLIPR, CHOK1-CCR2B-A5 cells, 20 nM MCP-1)
Assay type: cell-based
Settings: Ca mobilisation assay, CCR2, antagonist activity vs 20 nM MCP-1
Method in brief: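 FLIPR Fluo-4 calcium readout in CHO-K1 cells stably overexpressing human CCR2B; compounds first monitored 80 s for agonist activity, then after 20-30 min at 30 °C challenged with 20 nM MCP-1. Response is max minus basal fluorescence; antagonist value is concentration giving 50% inhibition of specific calcium increase.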

SMILES | IC50 [nM]
O=C(/C=C/c1cccc(Cl)c1)N1CCC(=O)N(CCCN2CCCCC2)CC1 [Example 188, 1-[(E)-3-(3-Chloro-phenyl)-acryloyl]-4-(3-piperidin-1-yl-propyl)-[1,4]diazepan-5-one] | 1340
C[C@H]1CCN(CCCN2CCN(C(=O)/C=C/c3ccc(F)c(Cl)c3)CCC2=O)C[C@H]1O [Example 190, 1-[(E)-3-(3-Chloro-4-fluoro-phenyl)-acryloyl]-4-[3-((+, cis)-3-hydroxy-4-methyl-piperidin-1-yl)-propyl]-[1,4]diazepan-5-one] | 118
O=C(/C=C/c1ccc(F)c(Cl)c1)N1CCC(=O)N(CCCN2CCC[C@@H](O)C2)CC1 [Example 193] | 644
O=C1NC(=O)C2(CCN(CCCN3CCN(C(=O)/C=C/c4ccc(F)c(Cl)c4)CCC3=O)CC2)N1 [Example 194] | 494
O=C1NCC2(CCN(CCCN3CCN(C(=O)/C=C/c4ccc(F)c(Cl)c4)CCC3=O)CC2)O1 [Example 195] | 453
O=C(/C=C/c1ccc(F)c(Cl)c1)N1CCC(=O)N(CCCN2CCC(O)CC2)CC1 [Example 196] | 864
O=C1CC2(CCN(CCCN3CCN(C(=O)/C=C/c4ccc(F)c(Cl)c4)CCC3=O)CC2)CN1 [Example 198] | 739
N#CC1CCN(CCCN2CCN(C(=O)/C=C/c3ccc(F)c(Cl)c3)CCC2=O)CC1 [Example 199] | 1340
COC(=O)NC1CCN(CCCN2CCN(C(=O)/C=C/c3ccc(F)c(Cl)c3)CCC2=O)CC1 [Example 201] | 656
O=C(/C=C/c1ccc(F)c(Cl)c1)N1CCC(=O)N(CCCN2CCC(CO)CC2)CC1 [Example 212] | 437
O=C(/C=C/c1ccc(Cl)c(Cl)c1)N1CCC(=O)N(CCCN2CCC(CO)CC2)CC1 [Example 229] | 154
O=C(/C=C/c1ccc(Cl)c(Cl)c1)N1CCC(=O)N(CCCN2CCN(C3CC3)CC2)CC1 [Example 241] | 765
O=C(/C=C/c1ccc(Cl)c(Cl)c1)N1CCC(=O)N(CCCN2CCN(C3CCCC3)CC2)CC1 [Example 242] | 124
COC(=O)NC1CCN(CCCN2CCN(C(=O)/C=C/c3ccc(Cl)c(Cl)c3)CCC2=O)CC1 [Example 244] | 660
COCC1CCN(CCCN2CCN(C(=O)/C=C/c3ccc(Cl)c(Cl)c3)CCC2=O)CC1 [Example 247] | 613
CC(C)CN1CCN(CCCN2CCN(C(=O)/C=C/c3ccc(Cl)c(Cl)c3)CCC2=O)CC1 [Example 258] | 375

SMILES | IC50 [nM]
O=C(/C=C/c1ccc(Cl)c(Cl)c1)N1CCC(=O)N(CC(O)CN2CCC(O)CC2)CC1 (centres unmarked) [Example 285] | 644
O=C(C=Cc1ccc(Cl)c(Cl)c1)N1CCC(=O)N(CCNC2CCCCC2O)CC1 (centres unmarked) [Example 357] | 385
O=C(/C=C/c1ccc(F)c(Cl)c1)N1CCC(=O)N(CCCCN2CCCCC2)CC1 [Example 382] | 246
O=C(/C=C/c1ccc(F)c(Cl)c1)N1CCC(=O)N(CCCCN2CCC(O)CC2)CC1 [Example 384] | 334
O=C(/C=C/c1ccc(F)c(Cl)c1)N1CCC(=O)N(CCCCN2CCC(CO)CC2)CC1 [Example 386] | 380
CC1C(O)CCCN1CCCCN1CCN(C(=O)C=Cc2ccc(F)c(Cl)c2)CCC1=O (centres unmarked) [Example 388] | 381
O=C(/C=C/c1ccc(F)c(Cl)c1)N1CCC(=O)N(CCCCN2CCN(C3CC3)CC2)CC1 [Example 397] | 944
COCCN1CCN(CCCCN2CCN(C(=O)/C=C/c3ccc(F)c(Cl)c3)CCC2=O)CC1 [Example 399] | 720
COC(=O)N(C)C1CCN(CCCCN2CCN(C(=O)/C=C/c3ccc(F)c(Cl)c3)CCC2=O)CC1 [Example 402] | 291
CC1(CO)CCN(CCCCN2CCN(C(=O)C=Cc3ccc(Cl)c(F)c3)CCC2=O)CC1O (centres unmarked) [Example 411] | 199
CC1(CO)CCN(CCCCN2CCN(C(=O)C=Cc3ccc(Cl)c(F)c3)CCC2=O)CC1O (centres unmarked) [Example 412] | 342
O=C(/C=C/c1ccc(Cl)c(Cl)c1)N1CCC(=O)N(CCCCN2CCC(O)CC2)CC1 [Example 424] | 119
CC(C)N1CCN(CCCCN2CCN(C(=O)/C=C/c3ccc(Cl)c(Cl)c3)CCC2=O)CC1 [Example 436] | 746
O=C(/C=C/c1ccc(Cl)c(Cl)c1)N1CCC(=O)N(CCCCN2CCN(C3CC3)CC2)CC1 [Example 437] | 463
O=C(/C=C/c1ccc(Cl)c(Cl)c1)N1CCC(=O)N(CCCCN2CCN(C3CCCC3)CC2)CC1 [Example 438] | 369
COCCN1CCN(CCCCN2CCN(C(=O)/C=C/c3ccc(Cl)c(Cl)c3)CCC2=O)CC1 [Example 439] | 263

The next molecules have a lower IC50 than those just listed; values first:

IC50 [nM] | SMILES
108 | CC1(CO)CCN(CCCN2CCN(C(=O)/C=C/c3ccc(Cl)c(Cl)c3)CCC2=O)CC1 [Example 254]
105 | CC(C)N1CCN(CCCN2CCN(C(=O)/C=C/c3ccc(Cl)c(Cl)c3)CCC2=O)CC1 [Example 240]
95 | COCC1CCN(CCCCN2CCN(C(=O)/C=C/c3ccc(F)c(Cl)c3)CCC2=O)CC1 [Example 404]
92 | COC(=O)NC1CCN(CCCCN2CCN(C(=O)/C=C/c3ccc(F)c(Cl)c3)CCC2=O)CC1 [Example 401]
70 | O=C(/C=C/c1ccc(Cl)c(Cl)c1)N1CCC(=O)N(CCCCN2CCC(CO)CC2)CC1 [Example 422]
38 | C[C@@H]1CN(CCCN2CCCCC2)C(=O)CCN1C(=O)/C=C/c1ccc(Cl)c(Cl)c1 [Example 186, (R)-1-[(E)-3-(3,4-Dichloro-phenyl)-acryloyl]-2-methyl-4-(3-piperidin-1-yl-propyl)-[1,4]diazepan-5-one]
27 | O=C(/C=C/c1ccc(Cl)c(F)c1)N1CCC(=O)N(CCCCN2CCC3(CC3)C(O)C2)CC1 (centres unmarked) [Example 415]
22 | COC(=O)NC1CCN(CCCCN2CCN(C(=O)/C=C/c3ccc(Cl)c(Cl)c3)CCC2=O)CC1 [Example 441]
19 | CC1(CO)CCN(CC(O)CN2CCN(C(=O)C=Cc3ccc(F)c(Cl)c3)CCC2=O)CC1O [Example 340, 1-[(E)-3-(3-Chloro-4-fluoro-phenyl)-acryloyl]-4-[(S)-2-hydroxy-3-((cis)-3-hydroxy-4-hydroxymethyl-4-methyl-piperidin-1-yl)-propyl]-[1,4]diazepan-5-one]
16 | COCC1CCCN(CCCCN2CCN(C(=O)/C=C/c3ccc(Cl)c(Cl)c3)CCC2=O)C1 (centres unmarked) [Example 423]
15 | O=C(/C=C/c1ccc(F)c(Cl)c1)N1CCC(=O)N(CCCN2CCC3(CC3)C(O)C2)CC1 (centres unmarked) [Example 192]
11 | CC1(C)CCN(C[C@H](O)CN2CCN(C(=O)/C=C/c3ccc(F)c(Cl)c3)CCC2=O)CC1O (stereo partly drawn) [Example 343, 1-[(E)-3-(3-Chloro-4-fluoro-phenyl)-acryloyl]-4-[(S)-2-hydroxy-3-(3-hydroxy-4,4-dimethyl-piperidin-1-yl)-propyl]-[1,4]diazepan-5-one]
11 | O=C(/C=C/c1ccc(Cl)c(F)c1)N1CCC(=O)N(CCCCN2CCC3(CC3)C(O)C2)CC1 (stereo not drawn) [Example 416, 1-[(E)-3-(4-Chloro-3-fluoro-phenyl)-acryloyl]-4-[4-((-)-4-hydroxy-6-aza-spiro[2.5]oct-6-yl)-butyl]-[1,4]diazepan-5-one]
9 | O=C(/C=C/c1ccc(Cl)c(Cl)c1)N1CCC(=O)N(CCCN2CCC3(CC3)C(O)C2)CC1 (centres unmarked) [Example 261]
8 | O=C(/C=C/c1ccc(F)c(Cl)c1)N1CCC(=O)N(CCCN2CCC3(CC3)C(O)C2)CC1 (stereo not drawn) [Example 189, 1-[(E)-3-(3-Chloro-4-fluoro-phenyl)-acryloyl]-4-[3-((-)-4-hydroxy-6-aza-spiro[2.5]oct-6-yl)-propyl]-[1,4]diazepan-5-one]
4 | O=C(/C=C/c1ccc(Cl)c(Cl)c1)N1CCC(=O)N(CCCN2CCC3(CC3)C(O)C2)CC1 (centres unmarked) [Example 262]
4 | CC1(C)CCN(C[C@H](O)CN2CCN(C(=O)/C=C/c3ccc(Cl)c(Cl)c3)CCC2=O)CC1O (stereo partly drawn) [Example 334, 1-[(E)-3-(3,4-Dichloro-phenyl)-acryloyl]-4-[(S)-2-hydroxy-3-(3-hydroxy-4,4-dimethyl-piperidin-1-yl)-propyl]-[1,4]diazepan-5-one]
3 | O=C(/C=C/c1ccc(F)c(Cl)c1)N1CCC(=O)N(C[C@@H](O)CN2CCC3(CC3)C(O)C2)CC1 (stereo partly drawn) [Example 336, 1-[(E)-3-(3-Chloro-4-fluoro-phenyl)-acryloyl]-4-[(S)-2-hydroxy-3-((−)-4-hydroxy-6-aza-spiro[2.5]oct-6-yl)-propyl]-[1,4]diazepan-5-one]
3 | O=C(/C=C/c1ccc(F)c(Cl)c1)N1CCC(=O)N(C[C@@H](O)CN2CCC3(CC3)C(O)C2)CC1 (stereo partly drawn) [Example 342, 1-[(E)-3-(3-Chloro-4-fluoro-phenyl)-acryloyl]-4-[(S)-2-hydroxy-3-((+)-4-hydroxy-6-aza-spiro[2.5]oct-6-yl)-propyl]-[1,4]diazepan-5-one]
2 | O=C(/C=C/c1ccc(Cl)c(Cl)c1)N1CCC(=O)N(C[C@@H](O)CN2CCC3(CC3)C(O)C2)CC1 (stereo partly drawn) [Example 327, 1-[(E)-3-(3,4-Dichloro-phenyl)-acryloyl]-4-[(S)-2-hydroxy-3-((−)-4-hydroxy-6-aza-spiro[2.5]oct-6-yl)-propyl]-[1,4]diazepan-5-one]
2 | O=C(/C=C/c1ccc(Cl)c(Cl)c1)N1CCC(=O)N(C[C@@H](O)CN2CCC3(CC3)C(O)C2)CC1 (stereo partly drawn) [Example 332, 1-[(E)-3-(3,4-Dichloro-phenyl)-acryloyl]-4-[(S)-2-hydroxy-3-((+)-4-hydroxy-6-aza-spiro[2.5]oct-6-yl)-propyl]-[1,4]diazepan-5-one]
